Assay results reported in ChEMBL document CHEMBL3526058, “Investigating the enteroenteric recirculation of apixaban, a factor Xa inhibitor: administration of activated charcoal to bile duct-cannulated rats and dogs receiving an intravenous dose and use of drug transporter knockout rats” (Drug Metab Dispos, 2013).

What was measured:
[1] = AUC (0 to infinity) in P-gp-knockout Sprague-Dawley rat at 2 mg/kg, iv; format: ADME, organism-based; set-up: time infinity, dose 2 mg/kg, route intravenous; details: plasma
[2] = Cmax in P-gp-knockout Sprague-Dawley rat at 2 mg/kg, iv; format: ADME, organism-based; set-up: dose 2 mg/kg, route intravenous; details: in vivo
Rattus norvegicus [3] = assay: Renal clearance in wild-type bile duct-cannulated Sprague-Dawley rat at 2 mg/kg, iv relative to total clearance; format: ADME, organism-based, Kidney; set-up: dose 2 mg/kg, route intravenous; details: in vivo
Rattus norvegicus [4] = assay: Metabolism and biliary clearance in wild-type bile duct-cannulated Sprague-Dawley rat at 2 mg/kg, iv relative to total clearance; format: ADME, organism-based; set-up: dose 2 mg/kg, route intravenous; details: in vivo
[5] = AUC (0 to infinity) in wild-type bile duct-cannulated Sprague-Dawley rat at 2 mg/kg, iv administered 0.125 hr post GF-120918 treatment; format: ADME, organism-based; set-up: time infinity, dose 2 mg/kg, route intravenous; details: in vivo, with GF-120918
[6] = Cmax in wild-type bile duct-cannulated Sprague-Dawley rat at 2 mg/kg, iv administered 0.125 hr post GF-120918 treatment; format: ADME, organism-based; set-up: dose 2 mg/kg, route intravenous; details: in vivo, with GF-120918
[7] = Half life in wild-type bile duct-cannulated Sprague-Dawley rat at 2 mg/kg, iv administered 0.125 hr post GF-120918 treatment; format: ADME, organism-based; set-up: dose 2 mg/kg, route intravenous; details: in vivo, with GF-120918
[8] = Clearance in wild-type bile duct-cannulated Sprague-Dawley rat at 2 mg/kg, iv administered 0.125 hr post GF-120918 treatment; format: ADME, organism-based; set-up: dose 2 mg/kg, route intravenous; details: in vivo, with GF-120918
Rattus norvegicus [9] = assay: Intestinal clearance in wild-type bile duct-cannulated Sprague-Dawley rat at 2 mg/kg, iv administered 0.125 hr post GF-120918 treatment; format: ADME, organism-based; set-up: dose 2 mg/kg, route intravenous; details: in vivo
Rattus norvegicus [10] = assay: Renal clearance in wild-type bile duct-cannulated Sprague-Dawley rat at 2 mg/kg, iv administered 0.125 hr post GF-120918 treatment relative to total clearance; format: ADME, organism-based, Kidney; set-up: dose 2 mg/kg, route intravenous; details: in vivo
[11] = Renal clearance in P-gp-knockout Sprague-Dawley rat at 2 mg/kg, iv; format: ADME, organism-based, Kidney; set-up: dose 2 mg/kg, route intravenous; details: in vivo
Rattus norvegicus [12] = assay: Intestinal clearance in P-gp-knockout Sprague-Dawley rat at 2 mg/kg, iv; format: ADME, organism-based; set-up: dose 2 mg/kg, route intravenous; details: in vivo
Rattus norvegicus [13] = assay: Metabolism and biliary clearance in P-gp-knockout Sprague-Dawley rat at 2 mg/kg, iv; format: ADME, organism-based, Bile; set-up: dose 2 mg/kg, route intravenous; details: in vivo
[14] = Cmax in wild-type 30 mins activated charcoal pre-treated bile duct-cannulated Sprague-Dawley rat at 2 mg/kg, iv followed by activated charcoal administration 5 to 180 mins post compound dosing; format: ADME, organism-based; set-up: dose 2 mg/kg, route intravenous; details: in vivo
[15] = Renal clearance in wild-type 30 mins activated charcoal pre-treated bile duct-cannulated Sprague-Dawley rat at 2 mg/kg, iv followed by activated charcoal administration 5 to 180 mins post compound dosing; format: ADME, organism-based, Kidney; set-up: dose 2 mg/kg, route intravenous; details: in vivo
Rattus norvegicus [16] = assay: Intestinal clearance in wild-type 30 mins activated charcoal pre-treated bile duct-cannulated Sprague-Dawley rat at 2 mg/kg, iv followed by activated charcoal administration 5 to 180 mins post compound dosing; format: ADME, organism-based; set-up: dose 2 mg/kg, route intravenous; details: in vivo
Rattus norvegicus [17] = assay: Metabolism and biliary clearance in P-gp-knockout Sprague-Dawley rat at 2 mg/kg, iv relative to total clearance; format: ADME, organism-based, Bile; set-up: dose 2 mg/kg, route intravenous; details: in vivo
Canis familiaris [18] = assay: AUC (0 to infinity) in bile duct-cannulated beagle dog at 1 mg/kg, iv administered as 5 mins infusion; format: ADME, organism-based, Canis lupus familiaris; set-up: time infinity, dose 1 mg/kg, route intravenous; details: in vivo
[19] = Volume of distribution at steady state in bile duct-cannulated beagle dog at 1 mg/kg, iv administered as 5 mins infusion; format: ADME, organism-based, Canis lupus familiaris; set-up: dose 1 mg/kg, route intravenous; details: in vivo, read-out: Vdss
[20] = Renal clearance in bile duct-cannulated beagle dog at 1 mg/kg, iv administered as 5 mins infusion; format: ADME, organism-based, Canis lupus familiaris, Kidney; set-up: dose 1 mg/kg, route intravenous; details: in vivo
Canis familiaris [21] = assay: Intestinal clearance in bile duct-cannulated beagle dog at 1 mg/kg, iv administered as 5 mins infusion; format: ADME, organism-based, Canis lupus familiaris; set-up: dose 1 mg/kg, route intravenous; details: in vivo
[22] = Renal clearance in bile duct-cannulated beagle dog at 1 mg/kg, iv administered as 5 mins infusion followed by activated charcoal administration 10 to 420 mins post compound dosing; format: ADME, organism-based, Canis lupus familiaris, Kidney; set-up: dose 1 mg/kg, route intravenous; details: in vivo
Canis familiaris [23] = assay: Intestinal clearance in bile duct-cannulated beagle dog at 1 mg/kg, iv administered as 5 mins infusion relative to total clearance; format: ADME, organism-based, Canis lupus familiaris; set-up: dose 1 mg/kg, route intravenous; details: in vivo
[24] = Drug recovery in urine of bile duct-cannulated beagle dog at 1 mg/kg, iv administered as 5 mins infusion measured up to 72 hrs; format: ADME, organism-based, Canis lupus familiaris; set-up: dose 1 mg/kg, route intravenous; details: read-out: Drug recovery
[25] = Drug recovery in feces of bile duct-cannulated beagle dog at 1 mg/kg, iv administered as 5 mins infusion measured up to 72 hrs; format: ADME, organism-based, Canis lupus familiaris; set-up: dose 1 mg/kg, route intravenous; details: read-out: Drug recovery
[26] = Drug recovery in feces of bile duct-cannulated beagle dog at 1 mg/kg, iv administered as 5 mins infusion followed by activated charcoal administration 10 to 420 mins post compound measured up to 72 hrs; format: ADME, organism-based, Canis lupus familiaris; set-up: dose 1 mg/kg, route intravenous; details: in vivo
[27] = Drug recovery in urine of Sprague-Dawley rat at 30 mg/kg, po measured up to 168 hrs; format: ADME, organism-based; set-up: dose 30 mg/kg, route oral; details: read-out: Drug recovery
[28] = Drug recovery in urine of bile duct-cannulated Sprague-Dawley rat at 30 mg/kg, po measured up to 48 hrs; format: ADME, organism-based; set-up: dose 30 mg/kg, route oral; details: read-out: Drug recovery
[29] = Drug recovery in bile of bile duct-cannulated Sprague-Dawley rat at 2 mg/kg, iv measured up to 24 hrs; format: ADME, organism-based; set-up: dose 2 mg/kg, route intravenous; details: read-out: Drug recovery
[30] = Cmax in BCRP-knockout Sprague-Dawley rat at 2 mg/kg, iv; format: ADME, organism-based; set-up: dose 2 mg/kg, route intravenous; details: in vivo
Rattus norvegicus [31] = assay: Intestinal clearance in BCRP-knockout Sprague-Dawley rat at 2 mg/kg, iv; format: ADME, organism-based; set-up: dose 2 mg/kg, route intravenous; details: in vivo
Rattus norvegicus [32] = assay: Intestinal clearance in BCRP-knockout Sprague-Dawley rat at 2 mg/kg, iv relative to total clearance; format: ADME, organism-based; set-up: dose 2 mg/kg, route intravenous; details: in vivo
Rattus norvegicus [33] = assay: Metabolism and biliary clearance in BCRP-knockout Sprague-Dawley rat at 2 mg/kg, iv relative to total clearance; format: ADME, organism-based, Bile; set-up: dose 2 mg/kg, route intravenous; details: in vivo
[34] = Plasma protein binding in beagle dog; format: ADME, cell-free, Canis lupus familiaris; details: read-out: PPB (converted)
[35] = Plasma protein binding in Sprague-Dawley rat; format: ADME, cell-free; details: read-out: PPB (converted)
[36] = Drug recovery in bile of 30 mins activated charcoal pre-treated bile duct-cannulated Sprague-Dawley rat at 2 mg/kg, iv followed by activated charcoal administration 5 to 180 mins post compound dosing measured up to 48 hrs; format: ADME, organism-based; set-up: dose 2 mg/kg, route intravenous; details: read-out: Drug recovery
[37] = Drug recovery in feces of bile duct-cannulated Sprague-Dawley rat at 2 mg/kg, iv administered 1 hr post GF-120918 treatment measured up to 48 hrs; format: ADME, organism-based; set-up: dose 2 mg/kg, route intravenous; details: with GF-120918, given 1 hr before the compound, read-out: Drug recovery
[38] = Drug recovery in feces of bile duct-cannulated P-gp-knockout Sprague-Dawley rat at 2 mg/kg, iv measured up to 24 hrs; format: ADME, organism-based; set-up: dose 2 mg/kg, route intravenous; details: read-out: Drug recovery
[39] = Drug recovery in feces of Sprague-Dawley rat at 2 mg/kg, iv measured up to 168 hrs; format: ADME, organism-based; set-up: dose 2 mg/kg, route intravenous; details: read-out: Drug recovery
[40] = Drug recovery in feces of Sprague-Dawley rat at 30 mg/kg, po measured up to 168 hrs; format: ADME, organism-based; set-up: dose 30 mg/kg, route oral; details: read-out: Drug recovery
[41] = Cmax in wild-type bile duct-cannulated Sprague-Dawley rat at 2 mg/kg, iv; format: ADME, organism-based; set-up: dose 2 mg/kg, route intravenous; details: in vivo
[42] = Half life in wild-type bile duct-cannulated Sprague-Dawley rat at 2 mg/kg, iv; format: ADME, organism-based; set-up: dose 2 mg/kg, route intravenous; details: in vivo
[43] = Clearance in wild-type bile duct-cannulated Sprague-Dawley rat at 2 mg/kg, iv; format: ADME, organism-based; set-up: dose 2 mg/kg, route intravenous; details: in vivo
[44] = Volume of distribution at steady state in wild-type bile duct-cannulated Sprague-Dawley rat at 2 mg/kg, iv; format: ADME, organism-based; set-up: dose 2 mg/kg, route intravenous; details: in vivo, read-out: Vdss
[45] = Mean residence time in wild-type bile duct-cannulated Sprague-Dawley rat at 2 mg/kg, iv; format: ADME, organism-based; set-up: dose 2 mg/kg, route intravenous; details: in vivo
[46] = Renal clearance in wild-type bile duct-cannulated Sprague-Dawley rat at 2 mg/kg, iv; format: ADME, organism-based, Kidney; set-up: dose 2 mg/kg, route intravenous; details: in vivo
Rattus norvegicus [47] = assay: Metabolism and biliary clearance in wild-type bile duct-cannulated Sprague-Dawley rat at 2 mg/kg, iv; format: ADME, organism-based; set-up: dose 2 mg/kg, route intravenous; details: in vivo

COc1ccc(-n2nc(C(N)=O)c3c2[14C](=O)N(c2ccc(N4CCCCC4=O)cc2)CC3)cc1
AUC(0-inf) [1]: 2040 ng·h/mL
Cmax [2]: 2160 ng/mL
CL (Rattus norvegicus [3]): 51%
CL (Rattus norvegicus [4]): 28%
AUC(0-inf) [5]: 2840 ng·h/mL
Cmax [6]: 1970 ng/mL
half-life [7]: 2.8 h
clearance [8]: 11.7 mL/min/kg
CL (Rattus norvegicus [9]): 1.7 mL/min/kg
CL (Rattus norvegicus [10]): 50%
CL renal [11]: 6.5 mL/min/kg
CL (Rattus norvegicus [12]): 3.67 mL/min/kg
CL (Rattus norvegicus [13]): 4.83 mL/min/kg
Cmax [14]: 1640 ng/mL
CL renal [15]: 13 mL/min/kg
CL (Rattus norvegicus [16]): 9.17 mL/min/kg
CL (Rattus norvegicus [17]): 33%
AUC (Canis familiaris [18]): 9300 ng·h/mL
Vd [19]: 0.2 L/kg
CL renal at 5 min [20]: 0.0907 mL/min/kg
CL (Canis familiaris [21]): 0.287 mL/min/kg
CL renal [22]: 0.122 mL/min/kg
CL (Canis familiaris [23]): 43%
dose excreted [24]: 13.5%
dose excreted [25]: 42.7%
Drug recovery [26]: 62.7%
dose excreted at 168 h [27]: 13.4%
dose excreted at 48 h [28]: 10.5%
dose excreted at 24 h [29]: 10.7%
Cmax [30]: 2370 ng/mL
CL (Rattus norvegicus [31]): 5.67 mL/min/kg
CL (Rattus norvegicus [32]): 37%
CL (Rattus norvegicus [33]): 30%
fraction unbound [34]: 0.08
fraction unbound [35]: 0.04
dose excreted [36]: 15.7%
dose excreted [37]: 13.8%
dose excreted at 24 h [38]: 24.9%
dose excreted at 168 h [39]: 41.1%
dose excreted at 168 h [40]: 74%
Cmax [41]: 2260 ng/mL
half-life [42]: 1.2 h
clearance [43]: 23.3 mL/min/kg
Vd [44]: 0.9 L/kg
MRT [45]: 0.6 h
CL renal [46]: 11.8 mL/min/kg
CL (Rattus norvegicus [47]): 6.5 mL/min/kg
